Consider three compounds from patent publication EP3723745B1, “PHENOXY ACIDS FOR THE TREATMENT OF NEUROMUSCULAR DISORDERS” (NMD Pharma A/S, priority 2017, dated 2019).

For orientation: EC50 means the concentration needed to bring the measured effect to its halfway point.

Assay [1] deals with soleus muscles. The assay can be described thus: Measurement of force in an in vitro model: isolated rat nerve-muscle preparation with tubocurarine. The settings on record: Rattus norvegicus, 40 min; percentage of initial force restored after 40 mins with 50 µM test compound; tubocurarine (115 nM) for 90 mins; read-out: Point increase. The procedure: Recovery of force is quantified as the percentage of the force prior to tubocurarine that is recovered by the compound.
The current invention relates to compounds that inhibit CIC-1 ion channels and increase muscle excitability and thereby improve muscle function in clinical conditions where muscle activation is failing. Such conditions result in loss of contractile function of skeletal muscle, weakness and excessive fatigue. In this series of experiments the compounds were tested for their ability to restore contractile function of isolated rat muscle when the neuromuscular transmission had been compromised akin to neuromuscular disorders.
Experimentally, soleus muscles from 4-5 wk old rats were isolated with the motor nerve remaining attached. The nerve-muscle preparations were mounted in experimental setups that enabled electrical stimulation of the motor nerve. Stimulation of the motor nerve led to activation of the muscle fibres and ensuing force production that was recorded.
After mounting the nerve-muscle preparation in the experimental setup, the contractile function of the muscle was initially assessed under the control conditions (Figure 2A). […] The experimental condition mimics the failing neuromuscular transmission in a range of neuromuscular disorders. After addition of tubocurarine the contractile force declined over the next 90 mins to 10-50 % of the control force. 50 µM of the test compound was then added and the contractile force recovered despite the continued presence of tubocurarine. To quantify the ability of the compound to restore force the percentage of the initial force that was restored was determined after 40 mins of compound exposure (Figure 2B) and the point increase is reported in Table 3. Table 3: Percentage increase of initial force that was restored using compounds of the invention

Assay [2] concerns the target T1, CIC-1 channels (Rattus norvegicus, UniProt P35524).
T1 construct: from tissue; host or cells: intact soleus muscle of 12-14-week old Wistar rats
T1 sequence (P35524 1-994): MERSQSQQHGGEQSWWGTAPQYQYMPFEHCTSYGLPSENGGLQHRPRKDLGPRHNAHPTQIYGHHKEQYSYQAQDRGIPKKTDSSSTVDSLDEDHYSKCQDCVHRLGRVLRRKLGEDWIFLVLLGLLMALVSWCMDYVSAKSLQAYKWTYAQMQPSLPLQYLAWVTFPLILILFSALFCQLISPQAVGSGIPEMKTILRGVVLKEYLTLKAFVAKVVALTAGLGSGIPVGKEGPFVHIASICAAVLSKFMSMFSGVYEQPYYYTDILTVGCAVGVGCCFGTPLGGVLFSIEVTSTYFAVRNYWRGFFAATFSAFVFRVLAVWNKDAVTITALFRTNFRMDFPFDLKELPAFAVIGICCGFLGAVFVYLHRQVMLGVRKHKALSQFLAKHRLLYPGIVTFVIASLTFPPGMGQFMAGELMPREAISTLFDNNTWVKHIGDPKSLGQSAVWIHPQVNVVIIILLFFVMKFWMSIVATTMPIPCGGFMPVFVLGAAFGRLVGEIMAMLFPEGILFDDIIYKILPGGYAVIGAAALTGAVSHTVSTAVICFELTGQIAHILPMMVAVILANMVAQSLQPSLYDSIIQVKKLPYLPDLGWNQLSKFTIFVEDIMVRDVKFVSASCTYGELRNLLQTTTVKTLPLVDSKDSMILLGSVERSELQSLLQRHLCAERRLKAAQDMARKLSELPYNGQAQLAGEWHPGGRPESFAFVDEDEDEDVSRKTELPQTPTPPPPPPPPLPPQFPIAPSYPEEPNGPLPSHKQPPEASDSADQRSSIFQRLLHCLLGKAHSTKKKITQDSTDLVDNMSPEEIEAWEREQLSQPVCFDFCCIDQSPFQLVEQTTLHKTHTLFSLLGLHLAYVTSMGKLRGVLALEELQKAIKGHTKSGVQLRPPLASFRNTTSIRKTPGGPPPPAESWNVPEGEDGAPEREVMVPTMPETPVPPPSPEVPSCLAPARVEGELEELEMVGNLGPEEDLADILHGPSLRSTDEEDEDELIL
The assay can be described thus: Electrophysiological measurement of compound inhibition of CIC-1 in rat muscle (Gm, three micro-electrodes technique). It is filed as cell-based. The conditions noted are these: reduction of Gm in fibres of whole rat soleus muscles, approx. 30°C; n = number of experiments. The text has this:
Table 2: Inhibition of CIC-1 ion channel using compounds of the invention

Assay [3] deals with female Lewis rats. Put plainly: Measurement of in situ muscle contractile characteristics (isometric hindlimb force, cisatracurium block). It is filed as in vivo, rat. The conditions noted are these: for average increase in twitch peaks: 12 Hz; for average increase in twitch peaks / average increase in tetanic force: cisatracurium infusion; for average increase in tetanic force: 80 Hz; for restore force to muscles in vivo: muscles partially inhibited by a neuromuscular blocker, summary in words. On the procedure: Isometric hindlimb force was measured in 12-week old female Lewis rats in the presence and absence of compound.
Rats were placed under anesthesia with isoflurane (2-4%), intubated and subsequently connected to a micro ventilator (Microvent 1, Hallowell EMC, US). Two stimulation electrodes were inserted through the skin to stimulate the sciatic nerve. A small incision was made proximal to the ankle, to expose the Achilles tendon, which was tied by cotton string, and connected to a force transducer (Fort250, World Precision Instruments) with adjustable position (Vernier control). The Achilles tendon was then cut distal to the attached cotton string. The rat was placed on a heated pad, and to prevent movement artefacts from contraction of the ankle dorsiflexors, the foot was fixated by tape on a footplate.
Muscle contractile properties were assessed by applying an electrical current (under supramaximal voltage conditions) to the nerve and recording the force generated by the muscle. The muscle was stretched until maximal force was obtained, when assessed by 2 Hz stimulation. Isometric force was measured every 30 seconds at 12 Hz (Twitch), 10 pulses, and at every 5 minutes at 80 Hz (Tetanic) for 1 second (80 pulses). This stimulation pattern was employed throughout the experiment, expect in few cases where 80 Hz stimulation was replaced by 12 Hz (10 pulses). […] When the level of neuromuscular inhibition was stable, the test article was injected i.v. at the chosen concentration. The effect of test article was assessed on its ability to increase force generated from the stimulation pattern applied. The effect was assessed in the ability to increase force per se (tetanic, 80 Hz, stimulation), and the ratio between individual twitch peaks (12 Hz stimulation). The effect was monitored for at least 1 hour after injection of test article. In addition, the time from injection of test article to maximal effect on force (both twitch and tetanic) was noted and the time for the effect to disappear (return to baseline), if possible. When appropriate the infusion of neuromuscular blocking agent was ceased, with the stimulation pattern continued, and the return of force to control levels was monitored. Animals were sacrificed by cervical dislocation while still fully sedated.

For the compound `CC(C)[C@H](Oc1ccc(Br)cc1F)C(=O)O` [Compound A-27, (2S)-2-(4-bromo-2-fluorophenoxy)-3-methylbutanoic acid], in assay [1], the activation at 50 µM is 46%. The EC50 in assay [2] was determined as 4.5 µM. In assay [3] (40 mg/kg i.v.), the “average increase in twitch peaks” value is reported as 12.2% and the “average increase in tetanic force” value was 36.4%. Moreover, the “restore force to muscles in vivo” value in assay [3] is “can restore force”.
As to `[2H][C@@](CC)(Oc1ccc(Br)cc1)C(=O)O` [Compound A-60, (2S)-2-(4-bromophenoxy)(2-^2H)butanoic acid], the activation at 50 µM in assay [1] came to 62%. For the same compound, the EC50 in assay [2] was found to be 7.5 ± 1 µM. Further, in assay [3] (20 mg/kg i.v.), the “average increase in twitch peaks” value is recorded as 18.5% and the “average increase in tetanic force” value is 52.7%. Further, the “restore force to muscles in vivo” value in assay [3] was “can restore force”.
In the case of `O=C(O)[C@H](CCF)Oc1ccc(Br)cc1` [Compound A-87, (2S)-2-(4-bromophenoxy)-4-fluorobutanoic acid], the activation at 50 µM in assay [1] amounted to 37%. Further, the response in assay [2] was half-maximal at 4.5 ± 0.8 µM (EC50). Besides, in assay [3] (42 mg/kg i.v.), the “average increase in twitch peaks” value is 5.8% and the “average increase in tetanic force” value was determined as 19.3%. Besides, the “restore force to muscles in vivo” value in assay [3] is given as “can restore force”.
